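All cell lines were grown in 96-well plates and treated with compound for 48 hours. Here, GI50 denotes the concentration required for 50% inhibition of growth.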 Active and inactive are the calls of the source. Rule as the data show it: active = GI50 up to about 1.1 µM and inactive = higher.
How the values were obtained:
Experiment in all cases: NCI tumour cell line growth inhibition, 48 h
SK-MEL-5 = system: SK-MEL-5
MOLT-4 = system: MOLT-4
LXFL 529 = system: LXFL 529
Malme-3M = system: Malme-3M
786-0 = system: 786-0
OVCAR-8 = system: OVCAR-8
HCT-15 = system: HCT-15
M14 = system: M14
A498 = system: A498
NCI-H460 = system: NCI-H460
K562 = system: K562
SK-OV-3 = system: SK-OV-3
ACHN = system: ACHN
RPMI-8226 = system: RPMI-8226
HOP-62 = system: HOP-62
CAKI-1 = system: CAKI-1
UO-31 = system: UO-31
OVCAR-4 = system: OVCAR-4
EKVX = system: EKVX
SR = system: SR
NCI-H522 = system: NCI-H522
UACC-62 = system: UACC-62
HL-60 = system: HL-60
SN12C = system: SN12C
SF-268 = system: SF-268
NCI-H226 = system: NCI-H226
COLO 205 = system: COLO 205
SNB-19 = system: SNB-19
DMS-114 = system: DMS-114
SNB-75 = system: SNB-75
UACC-257 = system: UACC-257
U-251 = system: U-251
TK-10 = system: TK-10
OVCAR-5 = system: OVCAR-5
SK-MEL-28 = system: SK-MEL-28
KM12 = system: KM12
SF-295 = system: SF-295
CCRF-CEM = system: CCRF-CEM
HOP-92 = system: HOP-92
SK-MEL-2 = system: SK-MEL-2
HT-29 = system: HT-29
SW-620 = system: SW-620
XF498 = system: XF498
NCI-H23 = system: NCI-H23
OVCAR-3 = system: OVCAR-3
DLD-1 = system: DLD-1
HCT-116 = system: HCT-116
M19-MEL = system: M19-MEL
SNB-78 = system: SNB-78
A549 = system: A549
KM-20L2 = system: KM-20L2
DMS-273 = system: DMS-273
LOX IMVI = system: LOX IMVI
HCC 2998 = system: HCC 2998
IGROV-1 = system: IGROV-1
SF-539 = system: SF-539
RXF 393 = system: RXF 393

Measured: GI50

Cc1cc(CC(O)c2ccc(Cl)c(Cl)c2)nc(O)n1 (configuration not stated)
30.7 µM: HCT-15
inactive: SK-MEL-5 57.4 µM | MOLT-4 > 10 µM | LXFL 529 20.9 µM | Malme-3M 81.8 µM | 786-0 17.6 µM | OVCAR-8 46.1 µM | M14 32.8 µM | A498 53.8 µM | NCI-H460 34.8 µM | K562 50.1 µM | SK-OV-3 35.2 µM | ACHN 31.3 µM | RPMI-8226 71.9 µM | HOP-62 25.6 µM | CAKI-1 21.7 µM | UO-31 54.1 µM | OVCAR-4 48.9 µM | EKVX 29.8 µM | SR 24.7 µM | NCI-H522 20.2 µM | UACC-62 50.9 µM | HL-60 31 µM | SN12C 86.3 µM | SF-268 38.5 µM | NCI-H226 26.9 µM | COLO 205 31 µM | SNB-19 30.5 µM | DMS-114 8.49 µM | SNB-75 17.7 µM | UACC-257 > 100 µM | U-251 29.1 µM | TK-10 86.9 µM | OVCAR-5 69 µM | SK-MEL-28 > 100 µM | KM12 36.4 µM | SF-295 30.3 µM | CCRF-CEM 48.8 µM | HOP-92 18 µM | SK-MEL-2 61.7 µM | HT-29 46.9 µM | SW-620 36.1 µM | XF498 18.4 µM | NCI-H23 27.5 µM | OVCAR-3 32.2 µM | DLD-1 18.7 µM | HCT-116 19.6 µM | M19-MEL 58.6 µM | SNB-78 76.2 µM | A549 21.8 µM | KM-20L2 51.1 µM

O=C(CSC(=S)N1CCOCC1)Nc1nc2c(s1)CCCC2
inactive: SK-MEL-5 35.5 µM | MOLT-4 > 100 µM | LXFL 529 > 100 µM | DMS-273 > 100 µM | Malme-3M 45.3 µM | 786-0 90.2 µM | OVCAR-8 > 100 µM | M14 > 100 µM | A498 > 100 µM | NCI-H460 > 100 µM | SK-OV-3 > 100 µM | LOX IMVI > 100 µM | ACHN > 100 µM | RPMI-8226 > 100 µM | HOP-62 > 100 µM | UO-31 41.4 µM | OVCAR-4 > 100 µM | EKVX 99.5 µM | SR 34.2 µM | NCI-H522 27.8 µM | HL-60 27.7 µM | SN12C > 100 µM | SF-268 > 100 µM | NCI-H226 > 100 µM | COLO 205 > 100 µM | DMS-114 30.1 µM | SNB-75 > 100 µM | UACC-257 45.7 µM | U-251 > 100 µM | TK-10 > 100 µM | OVCAR-5 > 100 µM | SK-MEL-28 > 100 µM | KM12 > 100 µM | SF-295 > 100 µM | CCRF-CEM 45.8 µM | HOP-92 23.9 µM | SK-MEL-2 > 100 µM | HT-29 > 100 µM | XF498 50.1 µM | NCI-H23 97.7 µM | OVCAR-3 51.9 µM | DLD-1 > 100 µM | HCC 2998 24.1 µM | HCT-116 > 100 µM | M19-MEL 92.5 µM | IGROV-1 > 100 µM | SNB-78 > 100 µM | SF-539 > 100 µM | A549 > 100 µM | KM-20L2 > 100 µM
> 100 µM: HCT-15

CCCCCCn1c(SCC)c2ccccc2c1-c1nc(F)nc(F)n1
inactive: SK-MEL-5 > 100 µM | MOLT-4 > 100 µM | LXFL 529 > 100 µM | DMS-273 > 100 µM | Malme-3M > 100 µM | 786-0 > 100 µM | OVCAR-8 > 100 µM | RXF 393 > 100 µM | M14 > 100 µM | NCI-H460 > 100 µM | K562 > 100 µM | SK-OV-3 > 100 µM | LOX IMVI > 100 µM | ACHN > 100 µM | RPMI-8226 > 100 µM | HOP-62 > 100 µM | CAKI-1 > 100 µM | UO-31 > 100 µM | OVCAR-4 > 100 µM | EKVX > 100 µM | SR 88.7 µM | NCI-H522 > 100 µM | HL-60 > 100 µM | SN12C > 100 µM | SF-268 > 100 µM | NCI-H226 > 100 µM | COLO 205 > 100 µM | SNB-19 > 100 µM | DMS-114 > 100 µM | SNB-75 73.5 µM | UACC-257 > 100 µM | U-251 > 100 µM | TK-10 > 100 µM | OVCAR-5 > 100 µM | SK-MEL-28 > 100 µM | KM12 > 100 µM | SF-295 > 100 µM | CCRF-CEM 36 µM | HOP-92 > 100 µM | SK-MEL-2 > 100 µM | HT-29 > 100 µM | SW-620 > 100 µM | XF498 > 100 µM | NCI-H23 > 100 µM | OVCAR-3 > 100 µM | DLD-1 > 100 µM | HCC 2998 > 100 µM | HCT-116 > 100 µM | M19-MEL > 100 µM | IGROV-1 > 100 µM | SNB-78 > 100 µM | SF-539 > 100 µM | A549 > 100 µM | KM-20L2 > 100 µM
> 100 µM: HCT-15
